In PMC7773212, “Dissecting the Mechanism of (R)-3-Hydroxybutyrate Dehydrogenase by Kinetic Isotope Effects, Protein Crystallography, and Computational Chemistry” (ACS Catalysis, 2020):

Columns and labels:
PaHBDH [1] = molecular target: T1, PaHBDH (Psychrobacter arcticus, UniProt Q4FRT2); assay: X-ray crystal structure, […] Å; type: binding; settings: ternary dead-end complex with NAD+
T1 construct: gene Psyc_1428; homotetramer; landmarks: Gln99, Ser148, His150, Lys158, Tyr161, Val194, Gln202

AbHBDH [2] = molecular target: T2, AbHBDH (Acinetobacter baumannii, UniProt A0A1E3M3N6); assay: X-ray crystal structure, […] Å; type: binding
T2 construct: gene AUO97_16470; homotetramer; landmarks: Gln95, Ser143, Asn145, Gly149, Phe150, Gly152, Lys153, Tyr156, Val189, Gln197
T2 sequence (A0A1E3M3N6 1-261): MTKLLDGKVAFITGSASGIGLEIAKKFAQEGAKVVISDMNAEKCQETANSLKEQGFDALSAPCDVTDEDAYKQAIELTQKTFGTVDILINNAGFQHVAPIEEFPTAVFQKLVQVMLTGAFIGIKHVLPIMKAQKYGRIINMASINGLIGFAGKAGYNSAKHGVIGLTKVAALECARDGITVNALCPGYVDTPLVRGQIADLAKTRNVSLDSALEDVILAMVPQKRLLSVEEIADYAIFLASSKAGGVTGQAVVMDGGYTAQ

PaHBDH [3] = molecular target: T1, PaHBDH; assay: NADH fluorescence titration with enzyme; type: binding; settings: 100 mM HEPES, pH 7.0, 25 °C; 3 μM NADH
AbHBDH [4] = molecular target: T2, AbHBDH; assay: isothermal titration calorimetry; type: binding; settings: 100 mM HEPES, pH 7.0, 25 °C; single-site model
PaHBDH [5] = molecular target: T1, PaHBDH; assay: X-ray crystal structure, […] Å; type: binding
[6] = molecular target: (R)-3-hydroxybutyrate dehydrogenase from Acinetobacter baumannii (Acinetobacter baumannii); assay: crystal structure; ternary complexes with NAD+ and acetoacetate or 3-oxovalerate; tetramers formed with crystallographic symmetry; crystals grown at room temperature
[7] = molecular target: (R)-3-hydroxybutyrate dehydrogenase from Acinetobacter baumannii (Acinetobacter baumannii); assay: SEC; analytical gel filtration, Superdex 200 10/300 GL, room temperature, samples loaded at 1 mg/mL, 20 mM HEPES pH 8.0, MW standards
[8] = molecular target: (R)-3-hydroxybutyrate dehydrogenase from Psychrobacter arcticus (Psychrobacter arcticus); assay: crystal structure; ternary complexes with NAD+ and acetoacetate or 3-oxovalerate; tetramers formed with crystallographic symmetry; crystals grown at room temperature
[9] = molecular target: (R)-3-hydroxybutyrate dehydrogenase from Psychrobacter arcticus (Psychrobacter arcticus); assay: SEC; analytical gel filtration, Superdex 200 10/300 GL, room temperature, samples loaded at 1 mg/mL, 20 mM HEPES pH 8.0, MW standards
[10] = ternary dead-end complex with NAD+
[11] = ternary dead-end complex with acetoacetate (also with 3-oxovalerate)

T1 sequence (Q4FRT2 entry or part of it): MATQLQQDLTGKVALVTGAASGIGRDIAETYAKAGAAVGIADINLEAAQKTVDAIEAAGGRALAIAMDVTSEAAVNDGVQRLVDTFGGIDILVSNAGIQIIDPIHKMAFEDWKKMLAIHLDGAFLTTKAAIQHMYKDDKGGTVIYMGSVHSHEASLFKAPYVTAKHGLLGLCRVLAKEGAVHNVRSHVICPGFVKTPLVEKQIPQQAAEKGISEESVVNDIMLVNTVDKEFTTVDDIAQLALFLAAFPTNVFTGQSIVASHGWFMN

CCC(=O)CC(=O)O [3-oxovalerate]
X-ray crystal structure, 1.84 Å (PaHBDH [1]): Fobs – Fcalc maps show clear density for NAD^+ and either acetoacetate or 3-oxovalerate
X-ray crystal structure, 1.9 Å (AbHBDH [2]; [10]): Fobs – Fcalc maps show clear density for NAD^+ and either acetoacetate or 3-oxovalerate

NC(=O)C1=CN([C@@H]2O[C@H](COP(=O)(O)OP(=O)(O)OC[C@H]3O[C@@H](n4cnc5c(N)ncnc54)[C@H](O)[C@@H]3O)[C@@H](O)[C@H]2O)C=CC1 [NADH]
Kd (PaHBDH [3]): 7 ± 2 µM
Kd (AbHBDH [4]): 14 ± 8 µM

NC(=O)c1ccc[n+]([C@@H]2O[C@H](COP(=O)(O)OP(=O)(O)OC[C@H]3O[C@@H](n4cnc5c(N)ncnc54)[C@H](O)[C@@H]3O)[C@@H](O)[C@H]2O)c1 [NAD^+]
X-ray crystal structure, 1.9 Å (AbHBDH [2]; [11]): crystal structures of the ternary complexes PaHBDH:NAD^+:AcAc, AbHBDH:NAD^+:AcAc
X-ray crystal structure, 1.3 Å (PaHBDH [5]; [11]): crystal structures of the ternary complexes PaHBDH:NAD^+:AcAc, AbHBDH:NAD^+:AcAc

CC(=O)CC(=O)O [acetoacetate]
X-ray crystal structure, 1.9 Å (AbHBDH [2]; [10]): crystal structures of the ternary complexes PaHBDH:NAD^+:AcAc, AbHBDH:NAD^+:AcAc
X-ray crystal structure, 1.3 Å (PaHBDH [5]; ternary dead-end complex with NAD+, two conformations of acetoacetate): crystal structures of the ternary complexes PaHBDH:NAD^+:AcAc, AbHBDH:NAD^+:AcAc

(R)-3-hydroxybutyrate dehydrogenase from Acinetobacter baumannii (enzyme)
stoichiometry N [6]: 4
stoichiometry N [7]: 4

(R)-3-hydroxybutyrate dehydrogenase from Psychrobacter arcticus (enzyme)
stoichiometry N [8]: 4
stoichiometry N [9]: 4
